Laboratory results reported in the supplement of paper PMC10307832.

Experiments:
Test in all cases: relative viability (nuclei count vs DMSO), 5 days (fraction); higher = more cells survive
SGI-1776 + Dasatinib = compound: CN1CCC(CNc2ccc3ncc(-c4cccc(OC(F)(F)F)c4)n3n2)CC1 [SGI-1776] + Cc1nc(Nc2ncc(C(=O)Nc3c(C)cccc3Cl)s2)cc(N2CCN(CCO)CC2)n1 [Dasatinib] (partner 0.075 µM)
Outline: (§1)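 Five library-drug doses in √10 steps were combined with a fixed anchor-drug dose, or a single drug was given alone, by pin tool to lung cancer cell lines in 1536-well plates the day after seeding. Nuclei were stained and counted after 5 days. Relative viability is the nuclei count in treated wells over that in vehicle wells, taken as the median of duplicate plates.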

SGI-1776 + AZD7762 = compound: CN1CCC(CNc2ccc3ncc(-c4cccc(OC(F)(F)F)c4)n3n2)CC1 [SGI-1776] + NC(=O)Nc1cc(-c2cccc(F)c2)sc1C(=O)N[C@H]1CCCNC1 [AZD7762] (partner 0.2 µM)
Outline: as §1

[1] = compound: C1COCCN1C2=NC(=NC3=C2OC4=C3C=CC=N4)C5=CC(=CC=C5)NC(=O)C6=CN=C(C=C6)N + O=C(c1cc(Cc2n[nH]c(=O)c3ccccc23)ccc1F)N1CCN(C(=O)C2CC2)CC1 [Olaparib] (partner 8 µM)
Outline: as §1

SGI-1776 + Pictilisib = compound: CN1CCC(CNc2ccc3ncc(-c4cccc(OC(F)(F)F)c4)n3n2)CC1 [SGI-1776] + CS(=O)(=O)N1CCN(Cc2cc3nc(-c4cccc5[nH]ncc45)nc(N4CCOCC4)c3s2)CC1 [Pictilisib] (partner 1 µM)
Outline: as §1

Cell Line	relative viability (SGI-1776 + Dasatinib; first compound 0.08 µM)	relative viability (SGI-1776 + Dasatinib; first compound 0.8 µM)	relative viability (SGI-1776 + Dasatinib; first compound 2.53 µM)	relative viability (SGI-1776 + Dasatinib; first compound 8 µM)	relative viability (SGI-1776 + AZD7762; first compound 0.08 µM)	relative viability (SGI-1776 + AZD7762; first compound 0.8 µM)	relative viability (SGI-1776 + AZD7762; first compound 2.53 µM)	relative viability (SGI-1776 + AZD7762; first compound 8 µM)	relative viability ([1]; first compound 0.02 µM)	relative viability ([1]; first compound 0.06325 µM)	relative viability ([1]; first compound 0.2 µM)	relative viability ([1]; first compound 0.6325 µM)	relative viability ([1]; first compound 2 µM)	relative viability (SGI-1776 + Pictilisib; first compound 0.08 µM)	relative viability (SGI-1776 + Pictilisib; first compound 0.8 µM)	relative viability (SGI-1776 + Pictilisib; first compound 2.53 µM)	relative viability (SGI-1776 + Pictilisib; first compound 8 µM)
NCI-H1623	0.658	0.608	0.559	0.538													
NCI-H1648					0.668	0.753	0.771	0.658	0.83	0.8	0.666	0.566	1.18				
NCI-H1650	0.372	0.292	0.208	0.171					0.72	0.903	0.757	0.88	0.591	0.586	0.542	0.355	0.146
NCI-H1703					0.106	0.114	0.136	0.106	0.335	0.447	0.372	0.308	0.222	0.242	0.22	0.251	0.181
NCI-H2009	0.373	0.291	0.231	0.15					0.695	0.674	0.689	0.725	0.687	0.764	0.93	0.682	0.474
NCI-H2023	0.637	0.523	0.432	0.254					0.587	0.519	0.379	0.463	0.316	0.23	0.23	0.202	0.147
NCI-H2228	0.581	0.665	0.416	0.27					0.822	0.69	0.481	0.564	0.33	0.446	0.38	0.286	0.177
NCI-H2342	0.364	0.326	0.289	0.301	0.57	0.625	0.442	0.517	0.472	0.46	0.402	0.391	0.4				
SK-LU-1	0.171	0.183	0.169	0.116					0.429	0.432	0.607	0.478	0.355	0.609	0.623	0.409	0.361
SK-MES-1	0.476	0.415	0.35	0.211					0.71	0.816	0.611	0.51	0.427	0.364	0.353	0.33	0.278
SW 900	0.542	0.387	0.56	0.301	0.852	0.745	0.676	0.568	0.981	0.945	0.743	0.804	0.655				
SW 1573	0.457	0.456	0.457	0.295					0.488	0.508	0.439	0.459	0.36	0.452	0.449	0.424	0.393
